Measured values reported in patent US20050112260A1, “Monatin tabletop sweetener compositions and methods of making same” (Cargill, Inc., priority 2003, published 2005).
Blank lines part the entries; values can stand above or below the compound they belong to. Residues, ends and D or L forms follow the SMILES beside them.

Assays:
[1] = Sensory evaluation of table-top sweeteners in coffee and iced tea (panel n=6); assay type: in vivo; conditions: 200 ml serving
Method: Monatin table-top formulations, including R,R monatin or R,R monatin/erythritol combinations, were assessed relative to other known sweeteners (aspartame and sucralose) in coffee and iced tea. The key sensory parameters assessed included sweetness quality, aftertaste, bitter taste and its aftertaste. Qualitative evaluation has been carried out.
Standard coffee was used in which to evaluate sweetener performance (Table 7).
Sweeteners were added to coffee at the following concentrations: • Aspartame 0.025% (w/v) • Sucralose 0.0082% (w/v) • R,R monatin* 0.0020, 0.0025, 0.0030% (w/v) plus 1 g maltodextrin • R,R monatin/erythritol 0.0020, 0.0025, 0.0030% (w/v) plus 1 g erythritol (ii) Iced Tea
An ice tea formulation was developed to evaluate sweetener performance (Table 8).
Sweeteners were added to tea at the following concentrations:
The evaluation of these coffee and tea drinks was carried out by a small (n=6) panel of experienced sensory evaluators who evaluated the coffee products on one tasting occasion and the tea products on a subsequent occasion.

[2] = Sensory stability of monatin and aspartame at pH 2.5, 3.0, 4.0 at 40° C. (sweetness vs sucrose standards, panel n=8); assay type: physicochemical; conditions: for Rate constant (k; day^−1) of sweetness loss: pseudo-first order assumed
Method: The sensory stability of monatin solutions prepared at pH 2.5, 3.0 and 4.0 and stored at 40° C. was monitored for 100 days. Loss of sweetness from these solutions was compared with the losses of sweetness from aspartame solutions prepared and stored under identical conditions.
The sensory stability of monatin (8% SEV, ˜55 ppm, synthetic blend containing approximately 96% of the 2R,4R/2S, 4S enantiometric pair and 4% of the 2R,4S/2S,4R enantiometric pair) in phosphate/citrate buffers having a pH of 2.5, 3.0, and 4.0 was examined after storage at 40° C. The stability of monatin was compared to that of aspartame (400 ppm) in the same buffers. Three sucrose reference solutions were prepared in the same phosphate/citrate buffers as the monatin and aspartame solutions. All prepared solutions were stored in the dark.
• pH2.5 Phosphoric acid (75% solution) 0.127% (w/v) • Tri-sodium citrate monohydrate 0.005% (w/v) • pH3.0 Phosphoric acid (75% solution) 0.092% (w/v) • Tri-sodium citrate monohydrate 0.031% (w/v) • pH4.0 Phosphoric acid (75% solution) 0.071% (w/v) • Tri-sodium citrate monohydrate 0.047% (w/v)
The sweetness of each sweetener relative to sucrose was assessed in duplicate by a small panel (n=8) of trained sensory evaluators experienced in the sweetness estimation procedure. All samples (in the same buffers) were served in duplicate at a temperature of 22° C.±1° C. Monatin (test) solutions, coded with 3 digit random number codes were presented individually to panelists, in random order. Sucrose reference standards, ranging from 4.0-10.0% (w/v) sucrose, increasing in steps of 0.5% (w/v) sucrose were also provided. Panelists were asked to estimate sweetness by comparing the sweetness of the test solution to the sucrose standards. This was carried out by taking 3 sips of the test solution, followed by a sip of water, followed by 3 sips of sucrose standard followed by a sip of water, etc. Panelists were encouraged to estimate the sweetness to one decimal place, e.g., 6.8, 8.5. A five minute rest period was imposed between evaluating the test solutions. Panelists were also asked to rinse well and eat a cracker to reduce any potential carry over effects.
If a pseudo-first order breakdown reaction is assumed, a plot of logn percentage retention versus time (logn% RTN v. t) allows estimation of the half-life (t½) and rate constant (k) of sweetness loss under any given set of conditions. In so doing, the kinetics of monatin and aspartame sweetness loss may be summarized as follows in Table 13.

[3] = Sweetness relative to sucrose, panel of trained sensory evaluators, dose response curve; assay type: in vivo; conditions: slope of dose response curve at 8% sucrose equivalence value (SEV)
Method: One assesses sweetness of a sweetener relative to sucrose by using a panel of trained sensory evaluators experienced in the sweetness estimation procedure. All samples (in same buffers) are served in duplicate at a temperature of 22° C.±1° C. Test solutions, coded with 3 digit random number codes, are presented individually to panelists, in random order. Sucrose reference standards, ranging from 4.0-10.0% (w/v) sucrose, increasing in steps of 0.5% (w/v) sucrose are also provided. Panelists are asked to estimate sweetness by comparing the sweetness of the test solution to the sucrose standards. […] Using information obtained from the panelists, the sweetness intensity or potency is calculated by dividing sucrose equivalent value (SEV) (e.g., % sucrose) by the % monatin at a particular point in a dose response curve.
The S,S stereoisomer of monatin is approximately 50-200 times sweeter than sucrose by weight. […] As discussed above, the sweetness of the monatin is calculated using experienced sensory evaluators in a sweetness comparison procedure, where a test sweetener solution is matched for sweetness intensity against one of a series of reference solutions. […] The intensity sweetness is calculated as the slope in a dose response curve, where the % sucrose is divided by the % monatin. […]

[4] = pH 2.5, 40° C., day 1, aspartame 400 ppm
[5] = pH 2.5, 40° C., day 2, aspartame 400 ppm
[6] = pH 2.5, 40° C., day 3, aspartame 400 ppm
[7] = pH 2.5, 40° C., day 4, aspartame 400 ppm
[8] = pH 2.5, 40° C., day 7, aspartame 400 ppm
[9] = pH 2.5, 40° C., day 8, aspartame 400 ppm
[10] = pH 2.5, 40° C., day 9, aspartame 400 ppm
[11] = pH 2.5, 40° C., day 11, aspartame 400 ppm
[12] = pH 2.5, 40° C., day 50, aspartame 400 ppm
[13] = pH 2.5, 40° C., day 100, aspartame 400 ppm
[14] = pH 3.0, 40° C., day 1, aspartame 400 ppm
[15] = pH 3.0, 40° C., day 2, aspartame 400 ppm
[16] = pH 3.0, 40° C., day 3, aspartame 400 ppm
[17] = pH 3.0, 40° C., day 4, aspartame 400 ppm
[18] = pH 3.0, 40° C., day 7, aspartame 400 ppm
[19] = pH 3.0, 40° C., day 8, aspartame 400 ppm
[20] = pH 3.0, 40° C., day 9, aspartame 400 ppm
[21] = pH 3.0, 40° C., day 11, aspartame 400 ppm
[22] = pH 3.0, 40° C., day 50, aspartame 400 ppm
[23] = pH 3.0, 40° C., day 100, aspartame 400 ppm
[24] = pH 4.0, 40° C., day 3, aspartame 400 ppm
[25] = pH 4.0, 40° C., day 8, aspartame 400 ppm
[26] = pH 4.0, 40° C., day 11, aspartame 400 ppm
[27] = pH 4.0, 40° C., day 17, aspartame 400 ppm
[28] = pH 4.0, 40° C., day 24, aspartame 400 ppm
[29] = pH 4.0, 40° C., day 50, aspartame 400 ppm
[30] = pH 4.0, 40° C., day 100, aspartame 400 ppm

Retention of Aspartame Sweetness (%) [2, 4]: 94.0% | Retention of Aspartame Sweetness (%) [2, 5]: 92.6% | Retention of Aspartame Sweetness (%) [2, 6]: 89.9% | Retention of Aspartame Sweetness (%) [2, 7]: 85.7% | Retention of Aspartame Sweetness (%) [2, 8]: 81.9% | Retention of Aspartame Sweetness (%) [2, 9]: 81.5% | Retention of Aspartame Sweetness (%) [2, 10]: 81.3% | Retention of Aspartame Sweetness (%) [2, 11]: 79.8% | Retention of Aspartame Sweetness (%) [2, 12]: 57.1% | Retention of Aspartame Sweetness (%) [2, 13]: 10.9% | Rate constant (k; day^−1) of sweetness loss ([2]; pH 2.5, 40° C.): 0.013 day⁻¹ | Sweetness Retained (%) ([2]; pH 2.5, 100 days storage at 40° C.): 11% | Retention of Aspartame Sweetness (%) [2, 14]: 96.5% | Retention of Aspartame Sweetness (%) [2, 15]: 96.1% | Retention of Aspartame Sweetness (%) [2, 16]: 92.3% | Retention of Aspartame Sweetness (%) [2, 17]: 89.9% | Retention of Aspartame Sweetness (%) [2, 18]: 86.3% | Retention of Aspartame Sweetness (%) [2, 19]: 82.9% | Retention of Aspartame Sweetness (%) [2, 20]: 83.1% | Retention of Aspartame Sweetness (%) [2, 21]: 81.5% | Retention of Aspartame Sweetness (%) [2, 22]: 65.9% | Retention of Aspartame Sweetness (%) [2, 23]: 30.8% | Rate constant (k; day^−1) of sweetness loss ([2]; pH 3.0, 40° C.): 0.009 day⁻¹ | Sweetness Retained (%) ([2]; pH 3.0, 100 days storage at 40° C.): 31% | Retention of Aspartame Sweetness (%) [2, 24]: 95.1% | Retention of Aspartame Sweetness (%) [2, 25]: 87.8% | Retention of Aspartame Sweetness (%) [2, 26]: 84.8% | Retention of Aspartame Sweetness (%) [2, 27]: 81.0% | Retention of Aspartame Sweetness (%) [2, 28]: 82.4% | Retention of Aspartame Sweetness (%) [2, 29]: 74.5% | Retention of Aspartame Sweetness (%) [2, 30]: 57.7% | Rate constant (k; day^−1) of sweetness loss ([2]; pH 4.0, 40° C.): 0.005 day⁻¹ | Sweetness Retained (%) ([2]; pH 4.0, 100 days storage at 40° C.): 58%
Structure (SMILES): COC(=O)[C@H](Cc1ccccc1)NC(=O)[C@@H](N)CC(=O)O [Aspartame, reference compound] (H-Asp-Phe-OMe)
Comments (sensory evaluation) ([1]; Coffee, Aspartame 250 ppm): Balanced sweetness profile. Very low level | SEV Aspartame (% sucrose) ([2]; pH 2.5, 40° C., day 0, aspartame 400 ppm): 7.34 % sucrose | SEV Aspartame (% sucrose) [2, 4]: 6.90 % sucrose | SEV Aspartame (% sucrose) [2, 5]: 6.80 % sucrose | SEV Aspartame (% sucrose) [2, 6]: 6.60 % sucrose | SEV Aspartame (% sucrose) [2, 7]: 6.29 % sucrose | SEV Aspartame (% sucrose) [2, 8]: 6.01 % sucrose | SEV Aspartame (% sucrose) [2, 9]: 5.98 % sucrose | SEV Aspartame (% sucrose) [2, 10]: 5.97 % sucrose | SEV Aspartame (% sucrose) [2, 11]: 5.86 % sucrose | SEV Aspartame (% sucrose) [2, 12]: 4.19 % sucrose | SEV Aspartame (% sucrose) [2, 13]: 0.80 % sucrose | SEV Aspartame (% sucrose) ([2]; pH 3.0, 40° C., day 0, aspartame 400 ppm): 7.15 % sucrose | SEV Aspartame (% sucrose) [2, 14]: 6.90 % sucrose | SEV Aspartame (% sucrose) [2, 15]: 6.87 % sucrose | SEV Aspartame (% sucrose) [2, 16]: 6.60 % sucrose | SEV Aspartame (% sucrose) [2, 17]: 6.43 % sucrose | SEV Aspartame (% sucrose) [2, 18]: 6.17 % sucrose | SEV Aspartame (% sucrose) [2, 19]: 5.93 % sucrose | SEV Aspartame (% sucrose) [2, 20]: 5.94 % sucrose | SEV Aspartame (% sucrose) [2, 21]: 5.83 % sucrose | SEV Aspartame (% sucrose) [2, 22]: 4.71 % sucrose | SEV Aspartame (% sucrose) [2, 23]: 2.20 % sucrose | SEV Aspartame (% sucrose) ([2]; pH 4.0, 40° C., day 0, aspartame 400 ppm): 7.10 % sucrose | SEV Aspartame (% sucrose) [2, 24]: 6.75 % sucrose | SEV Aspartame (% sucrose) [2, 25]: 6.23 % sucrose | SEV Aspartame (% sucrose) [2, 26]: 6.02 % sucrose | SEV Aspartame (% sucrose) [2, 27]: 5.75 % sucrose | SEV Aspartame (% sucrose) [2, 28]: 5.85 % sucrose | SEV Aspartame (% sucrose) [2, 29]: 5.29 % sucrose | SEV Aspartame (% sucrose) [2, 30]: 4.10 % sucrose

Structure (SMILES): N[C@H](C[C@](O)(Cc1c[nH]c2ccccc12)C(=O)O)C(=O)O [R,R monatin]
sweetness compared to sucrose by weight [3]: 2000-2400 times sweeter than sucrose by weight

Structure (SMILES): NC(CC(O)(Cc1c[nH]c2ccccc12)C(=O)O)C(=O)O (centres unmarked) [S,S monatin]
sweetness compared to sucrose by weight [3]: 50-200 times sweeter than sucrose by weight

Structure (SMILES): OC[C@H]1O[C@H](O[C@]2(CCl)O[C@H](CCl)[C@@H](O)[C@@H]2O)[C@H](O)[C@@H](O)[C@H]1Cl [Sucralose]
Comments (sensory evaluation) ([1]; Coffee, Sucralose 82 ppm): Slow sweetness onset allows stronger | Comments (sensory evaluation) ([1]; Iced Tea, Sucralose 170 ppm): Delay in sweetness onset means first
